Data from US20230212138A1, “PHD INHIBITOR COMPOUNDS, COMPOSITIONS, AND THEIR USE” (Akebia Therapeutics, Inc., priority 2020, published 2023).

How the values were obtained:
Assay type in all cases: biochemical
full-length human PHD3 = target: T1, full-length human PHD3 (Homo sapiens, UniProt Q9H6Z9); assay: TR-FRET assay, PHD3 enzymatic IC50; conditions: 35 nM PHD3, 1 μM 2-OG
T1 construct: It was expressed in E. coli as the full-length protein; 6-His (N); purchased Active Motif 81033; host or cells: E. coli
T1 sequence (Q9H6Z9 whole entry): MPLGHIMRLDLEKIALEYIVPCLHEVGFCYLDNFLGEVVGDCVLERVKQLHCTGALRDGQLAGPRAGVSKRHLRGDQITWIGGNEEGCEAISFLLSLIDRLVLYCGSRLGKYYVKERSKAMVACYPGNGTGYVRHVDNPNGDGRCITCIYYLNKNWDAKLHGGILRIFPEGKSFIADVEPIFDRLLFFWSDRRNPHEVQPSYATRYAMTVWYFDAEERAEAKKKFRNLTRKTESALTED
Source text: (§1) In the presence of 2-oxoglutarate and O2, PHD enzyme hydroxylates proline 564 of biotin-tagged HIF-1α peptide resulting in generation of biotin-tagged HIF-1α-hydroxyproline, succinate and CO2. The resulting proximity of the donor fluorophore complex, monoclonal antibody anti-6His-Terbium (Tb)-cryptate Gold, bound to the His-tagged VHL protein, EloB, EloC complex (His-VBC) and the acceptor fluorophore, SA-D2 complex, bound to HIF-1α-hydroxyproline results in a fluorescence resonance energy transfer signal that can be detected and quantified
(§2) Time-resolved fluorescence resonance energy transfer (TR-FRET) assay was utilized to determine the enzymatic half maximal inhibitory concentration (IC50) value of PHD inhibitors against the full-length human prolyl-4-hydroxylase domain (PHD) enzymes, PHD1, PHD2, and PHD3. The TR-FRET assay was developed based on the specific binding of hydroxylated HIF-1α peptide with the complex formed by VHL, EloB and EloC (VBC), to generate a fluorescent signal. Terbium (Tb)-Donor (monoclonal antibody anti-6His-Tb-cryptate Gold) and D2-acceptor (streptavidin [SA]-D2) of TR-FRET are linked to the VBC complex and to HIF-1α peptide, respectively. The VBC complex binds specifically to the HIF-1α peptide when it is hydroxylated, allowing energy transfer from TR-FRET donor to acceptor (FIG. 1).
Recombinant human PHD3 protein (molecular weight 31.1 kDa) was purchased from Active Motif (Carlsbad, Calif., USA). It was expressed in E. coli as the full-length protein (NCBI accession number NP_071356.1) with an N-terminal 6-His tag (catalog #81033, Lot #24417001).
(§3) PHD inhibitor compound was preincubated with PHD enzyme in a 10 μL reaction volume in white 384-well Optiplate microplates (catalog #6007290, Perkin Elmer, Waltham, Mass., USA). For this, 5 μL PHD inhibitor compound was serially diluted with dilution buffer (50 mM HEPES [4-(2-hydroxyethyl)-1-piperazineethanesulfonic acid] pH 7.5, 50 mM sodium chloride [NaCl], 0.01% Tween-20, 0.01% purified bovine serum albumin [BSA]) and mixed with 5 μL PHD enzyme mix prepared as a 4× concentrate in the dilution buffer containing PHD enzyme (60 nM PHD1, 20 nM PHD2, 140 nM PHD3), 40 μM ferrous ammonium sulfate (FAS), 4 mM sodium (Na) ascorbate. The plates were incubated for 30 minutes at room temperature without rotation.
(§4) Five microliters of the VBC/anti-6His-Tb-cryptate Gold mix prepared as a 4×concentrate in dilution buffer containing 20 nM His-VBC, 1.32 nM monoclonal antibody anti-6His-Tb-cryptate Gold was then added. This step was followed immediately by the addition of 5 μL of the HIF-1α C35 substrate mix prepared as a 4×concentrate in the dilution buffer containing 120 nM biotin-labeled HIF-1α C35, 132 nM SA-D2, 4 μM 2-oxoglutarate (2-OG) to reach a final reaction volume of 20 μL.
(§5) The final assay reaction contained 50 mM HEPES, pH 7.5, 50 mM NaCl, 1 μM 2-OG, 10 μM FAS, 1 mM Na ascorbate, 0.01% Tween-20, 0.01% purified BSA, 30 nM biotin-labeled HIF-1α C35, 5 nM His-VBC, 0.33 nM monoclonal antibody anti-6His-Tb-cryptate Gold, 33 nM SA-D2 and PHD enzyme (15 nM PHD1, 5 nM PHD2, or 35 nM PHD3) with the diluted compound.
(§6) For the measurement of the IC50 of PHD inhibitor compound, reactions were incubated for 10 minutes at room temperature and then read on a Perkin Elmer EnVision (Waltham, Mass., USA) at an excitation wavelength of 340 nm and at emission wavelengths of 615 nm and 665 nm. The data represent the quotient of the signal intensity at 665 nm and 615 nm, automatically calculated by Envision Manager software (Perkin Elmer, Waltham, Mass., USA). The IC50 values (mean, standard deviation, standard error of the mean, geometric mean and 95% confidence interval) were determined using a four-parameter curve-fit using GraphPad Prism 7.0 (GraphPad, La Jolla, Calif., USA) and represent the compound concentration plotted against the calculated ratio of 665 nm and 615 nm. […]

full-length human PHD2 = target: T2, full-length human PHD2 (Homo sapiens, UniProt Q9GZT9); assay: TR-FRET assay, PHD2 enzymatic IC50; conditions: 5 nM PHD2, 1 μM 2-OG
T2 construct: The PHD2 construct contained amino acids 1 to 426 of PHD2; His tag (N, cleaved yes); TEV protease cleavage site (N, cleaved yes); host or cells: Sf9 insect cells (baculovirus)
T2 sequence (Q9GZT9 whole entry, the tested form may be a part): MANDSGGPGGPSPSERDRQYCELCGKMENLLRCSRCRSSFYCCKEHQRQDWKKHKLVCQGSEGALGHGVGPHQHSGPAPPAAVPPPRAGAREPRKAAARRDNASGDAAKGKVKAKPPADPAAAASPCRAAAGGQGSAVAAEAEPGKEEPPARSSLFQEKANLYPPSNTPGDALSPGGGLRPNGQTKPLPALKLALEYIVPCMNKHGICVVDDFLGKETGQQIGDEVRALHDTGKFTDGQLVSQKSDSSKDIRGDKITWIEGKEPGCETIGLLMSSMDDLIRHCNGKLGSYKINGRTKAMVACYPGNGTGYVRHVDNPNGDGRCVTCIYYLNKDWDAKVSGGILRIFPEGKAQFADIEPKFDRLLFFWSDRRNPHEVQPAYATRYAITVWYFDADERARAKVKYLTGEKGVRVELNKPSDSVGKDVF
Source text: as §1, §2
The full-length human PHD2 enzyme was produced with a baculovirus infected insect cell (BIIC) expression system by Beryllium (Bedford, Mass., USA). The PHD2 construct contained amino acids 1 to 426 of PHD2 (UniProt Knowledgebase[UniProtKB]/Swiss-Prot accession number Q9GZT9.1), and a His tag and a Tobacco Etch Virus (TEV) protease cleavage site at the N-terminus. The construct was expressed in Sf9 insect cells, purified by Ni-NTA column and digested with TEV protease to remove the His tag.
as §3, §4, §5
For the measurement of the IC50 of PHD inhibitor compound, reactions were incubated for 10 minutes at room temperature and then read on a Perkin Elmer EnVision (Waltham, Mass., USA) at an excitation wavelength of 340 nm and at emission wavelengths of 615 nm and 665 nm. The data represent the quotient of the signal intensity at 665 nm and 615 nm, automatically calculated by Envision Manager software (Perkin Elmer, Waltham, Mass., USA). […]

full-length human PHD1 = target: T3, full-length human PHD1 (Homo sapiens, UniProt Q96KS0); assay: TR-FRET assay, PHD1 enzymatic IC50; conditions: 15 nM PHD1, 1 μM 2-OG
T3 construct: expressed in a baculovirus expression system as the full-length protein; FLAG (N); purchased Active Motif 81064; host or cells: baculovirus expression system
T3 sequence (Q96KS0 whole entry): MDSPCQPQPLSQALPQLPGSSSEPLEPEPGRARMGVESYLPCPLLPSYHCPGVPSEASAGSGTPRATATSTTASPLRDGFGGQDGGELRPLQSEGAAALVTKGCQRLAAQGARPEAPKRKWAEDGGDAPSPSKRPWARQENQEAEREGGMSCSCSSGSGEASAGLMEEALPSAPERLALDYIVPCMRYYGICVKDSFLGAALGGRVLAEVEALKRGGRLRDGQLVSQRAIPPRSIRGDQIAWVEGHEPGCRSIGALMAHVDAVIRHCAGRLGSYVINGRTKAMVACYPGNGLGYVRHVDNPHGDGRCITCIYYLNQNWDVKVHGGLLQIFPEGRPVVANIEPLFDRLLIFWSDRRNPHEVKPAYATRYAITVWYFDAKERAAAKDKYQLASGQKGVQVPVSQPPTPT
Source text: as §1, §2
Recombinant human PHD1 protein (catalog #81064, Lot #24717001) was purchased from Active Motif (Carlsbad, Calif., USA). PHD1 was expressed in a baculovirus expression system as the full-length protein (NCBI accession number NP_542770.2) with an N-terminal FLAG tag (molecular weight 44.9 kDa). Purity (>90%) was assessed by SDS-PAGE.
as §3, §4, §5, §6

SMILES: CCC(=O)c1ccc(-n2ncc(-c3ccc(C#N)cc3)c2O)nc1 [Compound 2, 4-(5-hydroxy-1-(5-propionylpyridin-2-yl)-1H-pyrazol-4-yl)benzonitrile]
- IC50 (full-length human PHD3): < 100 nM
- IC50 (full-length human PHD2): < 100 nM
- IC50 (full-length human PHD1): < 100 nM

SMILES: N#Cc1ccc(-c2cnn(-c3ccc(-c4ccccn4)cn3)c2O)cc1 [Compound 13, 4-(1-([2,3′-bipyridin]-6′-yl)-5-hydroxy-1H-pyrazol-4-yl)benzonitrile]
- IC50 (full-length human PHD2): 100 to 1000 nM
- IC50 (full-length human PHD1): < 100 nM

SMILES: Cc1cc(C#N)ccc1-c1cnn(-c2ncc(S(C)(=O)=O)cc2Cl)c1O [Compound 32, 4-(1-(3-chloro-5-(methylsulfonyl)pyridin-2-yl)-5-hydroxy-1H-pyrazol-4-yl)-3-methylbenzonitrile]
- IC50 (full-length human PHD2): ≥ 10000 nM
- IC50 (full-length human PHD1): ≥ 10000 nM

SMILES: CS(=O)(=O)c1ccc(-n2ncc(-c3ccc(Cl)cc3)c2O)nc1 [Compound 19, 4-(4-chlorophenyl)-1-(5-(methylsulfonyl)pyridin-2-yl)-1H-pyrazol-5-ol]
- IC50 (full-length human PHD3): 100 to 1000 nM
- IC50 (full-length human PHD2): < 100 nM
- IC50 (full-length human PHD1): < 100 nM

SMILES: CP(C)(=O)c1ccc(-n2ncc(-c3ccc(C#N)cc3)c2O)nc1 [Compound 30, 4-(1-(5-(dimethylphosphoryl)pyridin-2-yl)-5-hydroxy-1H-pyrazol-4-yl)benzonitrile]
- IC50 (full-length human PHD2): < 100 nM
- IC50 (full-length human PHD1): < 100 nM

SMILES: CS(=O)(=O)NC(=O)c1ccc(-n2ncc(-c3ccc(C#N)cc3)c2O)nc1 [Compound 27, 6-(4-(4-cyanophenyl)-5-hydroxy-1H-pyrazol-1-yl)-N-(methylsulfonyl) nicotinamide]
- IC50 (full-length human PHD2): < 100 nM
- IC50 (full-length human PHD1): < 100 nM

SMILES: CS(=O)(=O)c1ccc(-n2ncc(-c3ccc(C#N)cc3)c2O)nc1 [Compound 4, 4-(5-hydroxy-1-(5-(methylsulfonyl)pyridin-2-yl)-1H-pyrazol-4-yl)benzonitrile]
- IC50 (full-length human PHD3): < 100 nM
- IC50 (full-length human PHD2): < 100 nM
- IC50 (full-length human PHD1): < 100 nM

SMILES: CS(=O)(=O)c1ccc(-n2ncc(-c3ccc(Br)cc3)c2O)nc1 [Compound 9, 4-(4-bromophenyl)-1-(5-(methylsulfonyl)pyridin-2-yl)-1H-pyrazol-5-ol]
- IC50 (full-length human PHD3): 100 to 1000 nM
- IC50 (full-length human PHD2): < 100 nM
- IC50 (full-length human PHD1): < 100 nM

SMILES: CCS(=O)(=O)Nc1ccc(-n2ncc(-c3ccc(C#N)cc3)c2O)nc1 [Compound 25, N-(6-(4-(4-cyanophenyl)-5-hydroxy-1H-pyrazol-1-yl)pyridin-3-yl)ethanesulfonamide]
- IC50 (full-length human PHD3): < 100 nM
- IC50 (full-length human PHD2): < 100 nM
- IC50 (full-length human PHD1): < 100 nM

SMILES: N#Cc1ccc(-c2cnn(-c3ccc(-c4nccs4)cn3)c2O)cc1 [Compound 12, 4-(5-hydroxy-1-(5-(thiazol-2-yl)pyridin-2-yl)-1H-pyrazol-4-yl)benzonitrile]
- IC50 (full-length human PHD3): < 100 nM
- IC50 (full-length human PHD2): < 100 nM
- IC50 (full-length human PHD1): < 100 nM

SMILES: N#Cc1ccc(-c2cnn(-c3ccc(Cl)cn3)c2O)cc1 [Compound 18, 4-(1-(5-chloropyridin-2-yl)-5-hydroxy-1H-pyrazol-4-yl)benzonitrile]
- IC50 (full-length human PHD2): 100 to 1000 nM
- IC50 (full-length human PHD1): 100 to 1000 nM

SMILES: CC(C)C(=O)c1ccc(-n2ncc(-c3ccc(C#N)cc3)c2O)nc1 [Compound 3, 4-(5-hydroxy-1-(5-isobutyrylpyridin-2-yl)-1H-pyrazol-4-yl)benzonitrile]
- IC50 (full-length human PHD3): < 100 nM
- IC50 (full-length human PHD2): < 100 nM
- IC50 (full-length human PHD1): < 100 nM

SMILES: N#Cc1ccc(-c2cnn(-c3ccc(C4CC4)cn3)c2O)cc1 [Compound 16, 4-(1-(5-cyclopropylpyridin-2-yl)-5-hydroxy-1H-pyrazol-4-yl)benzonitrile]
- IC50 (full-length human PHD2): ≥ 10000 nM
- IC50 (full-length human PHD1): 100 to 1000 nM

SMILES: N#Cc1ccc(-c2cnn(-c3ccc(NC(=O)N4CCOCC4)cn3)c2O)cc1 [Compound 28, N-(6-(4-(4-cyanophenyl)-5-hydroxy-1H-pyrazol-1-yl)pyridin-3-yl)morpholine-4-carboxamide]
- IC50 (full-length human PHD2): ≥ 10000 nM
- IC50 (full-length human PHD1): ≥ 10000 nM

SMILES: Cc1cc(C#N)ccc1-c1cnn(-c2ccc(S(C)(=O)=O)cn2)c1O [Compound 6, 4-(5-hydroxy-1-(5-(methylsulfonyl)pyridin-2-yl)-1H-pyrazol-4-yl)-3-methylbenzonitrile]
- IC50 (full-length human PHD3): < 100 nM
- IC50 (full-length human PHD2): < 100 nM
- IC50 (full-length human PHD1): < 100 nM

SMILES: N#Cc1ccc(-c2cnn(-c3ccc(C(F)(F)F)cn3)c2O)cc1 [Compound 14, 4-(5-hydroxy-1-(5-(trifluoromethyl)pyridin-2-yl)-1H-pyrazol-4-yl)benzonitrile]
- IC50 (full-length human PHD2): 1000 to 10000 nM
- IC50 (full-length human PHD1): 100 to 1000 nM

SMILES: CS(=N)(=O)c1ccc(-n2ncc(-c3ccc(C#N)cc3)c2O)nc1 (stereo not shown) [Compound 26, 4-(5-hydroxy-1-(5-(S-methylsulfonimidoyl)pyridin-2-yl)-1H-pyrazol-4-yl)benzonitrile]
- IC50 (full-length human PHD2): < 100 nM
- IC50 (full-length human PHD1): < 100 nM

SMILES: CS(=O)(=O)c1ccc(-n2ncc(-c3cccc(C#N)c3)c2O)nc1 [Compound 5, 3-(5-hydroxy-1-(5-(methylsulfonyl)pyridin-2-yl)-1H-pyrazol-4-yl)benzonitrile]
- IC50 (full-length human PHD2): < 100 nM
- IC50 (full-length human PHD1): 100 to 1000 nM

SMILES: N#Cc1ccc(-c2cnn(-c3ccc(Br)cn3)c2O)cc1 [Compound 21, 4-(1-(5-bromopyridin-2-yl)-5-hydroxy-1H-pyrazol-4-yl)benzonitrile]
- IC50 (full-length human PHD2): 100 to 1000 nM
- IC50 (full-length human PHD1): 100 to 1000 nM

SMILES: N#Cc1ccc(-c2cnn(-c3ccc(NC(=O)N4CCNCC4)cn3)c2O)cc1 [Compound 33, N-(6-(4-(4-cyanophenyl)-5-hydroxy-1H-pyrazol-1-yl)pyridin-3-yl)piperazine-1-carboxamide]
- IC50 (full-length human PHD2): ≥ 10000 nM
- IC50 (full-length human PHD1): ≥ 10000 nM

SMILES: CC(=O)NS(=O)(=O)c1ccc(-n2ncc(-c3ccc(C#N)cc3)c2O)nc1 [Compound 29, N-((6-(4-(4-cyanophenyl)-5-hydroxy-1H-pyrazol-1-yl)pyridin-3-yl)sulfonyl)acetamide]
- IC50 (full-length human PHD2): < 100 nM
- IC50 (full-length human PHD1): < 100 nM

SMILES: CS(=O)(=O)c1ccc(-n2ncc(-c3ccc(Cl)cn3)c2O)nc1 [Compound 31, 4-(5-chloropyridin-2-yl)-1-(5-(methylsulfonyl)pyridin-2-yl)-1H-pyrazol-5-ol]
- IC50 (full-length human PHD2): 100 to 1000 nM
- IC50 (full-length human PHD1): 100 to 1000 nM
